Earlier results on one compound are cited in US20240148693A1, “COMPOSITION, PREPARATION METHOD THEREFOR, AND USE THEREOF” (CHANGSHA JINGYI PHARMACEUTICAL TECHNOLOGY CO., LTD, priority 2021, published 2024).

The data set concerns synaptic vesicle glycoprotein 2A (SV2A). The following applies: preclinical animal experiments.

For the compound `CCC[C@@H]1CC(=O)N([C@@H](CC)C(N)=O)C1` [Brivaracetam], the “Affinity for SV2A relative to levetiracetam” value was 15-30 times.
